Assay results published in patent US8420607B2 (priority 2006, dated 2013).

Columns and labels:
[1] = test system: rabbit anti-live spore B. anthracis Sterne 34F2 antiserum; assay type: binding
[2] = test system: IgG antibodies of rabbit anti-live spore, anti-irradiated spore and anti-polysaccharide-KLH antisera; assay type: binding
[3] = test system: rabbit anti-irradiated spore B. anthracis Sterne 34F2 antiserum; assay type: binding
[4] = test system: anti-anthrose IgG in rhesus macaque sera; assay type: binding, rhesus macaques
[5] = test system: rabbit anti-B. anthracis live spore antiserum IgG; assay type: binding
[6] = test system: rabbit anti-spore serum (live spore antiserum); assay type: binding

## COC1C(OC2C(O)C(C)OC(OC3C(O)C(C)OC(OCCCN)C3O)C2O)OC(C)C(NC(=O)CC(C)C)C1O [trisaccharide 3, 3-aminopropyl O-(4-(3-methylbutamido)-2-O-methyl-4,6-dideoxy-β-D-glucopyranosyl)-(1-→3)-O-(α-L-rhamnopyranosyl)-(1→3)-α-L-rhamnopyranoside]
[1]
  Reduction in reporter signal (OD) compared to the control: 85%

## CC1OC(OC2C(O)C(C)OC(OCCCN)C2O)C(O)C(OC2OC(C)C(NC(=O)CC(C)(C)O)C(O)C2O)C1O [trisaccharide 2, 3-aminopropyl O-(4-(3-hydroxy-3-methylbutamido)-4,6-dideoxy-β-D-glucopyranosyl)-(1→3)-O-(α-L-rhamnopyranosyl)-(1→3)-α-L-rhamnopyranoside]
[2]
  Relative recognition by antibodies elicited by the live spore vaccine: recognized trisaccharide 2 much better than 1

## CO[C@H]1[C@H](O[C@@H]2[C@@H](O)[C@H](C)O[C@@H](O[C@@H]3[C@@H](O)[C@H](C)O[C@@H](OCCCN)[C@@H]3O)[C@@H]2O)O[C@H](C)[C@@H](NC(=O)CC(C)(C)O)[C@@H]1O [trisaccharide 1, 3-aminopropyl O-(4-(3-hydroxy-3-methylbutamido)-2-O-methyl-4,6-dideoxy-β-D-glucopyranosyl)-(1→3)-O-(α-L-rhamnopyranosyl)-(1→3)-α-L-rhamnopyranoside]
[1]
  Drop in OD by competing free trisaccharide: significant drop in OD
[3]
  Inhibition of interaction of antisera from rabbits immunized with irradiated spores: could also be inhibited in a dose response manner
[4]
  Inhibition of anti-anthrose response measured by ELISA: specifically inhibited
  Inhibition of serum binding to KLH-A-3: inhibited binding
  Inhibition of serum binding to KLH-conjugated trisaccharide: Binding could be specifically inhibited
[5]
  Inhibition of antiserum binding to B. anthracis Pasteur HF-PS-BSA: no inhibition was observed

## maltoheptaose [reference compound]
[6]
  Inhibition of antiserum binding to B. anthracis HF-PS-BSA: no significant inhibition

## COC1C(OC2C(O)C(C)OC(OC3C(O)C(C)OC(OCCCN)C3O)C2O)OC(C)C(NC(C)=O)C1O [analogue 4, 3-aminopropyl O-(4-acetamido-2-O-methyl-4,6-dideoxy-β-D-glucopyranosyl)-(1→3)-O-(α-L-rhamnopyranosyl)-(1→3)-β-L-rhamnopyranoside]
[1]
  Reduction in reporter signal (OD) compared to the control: 17%
